In PMC12838644, “Dihydrotanshinone as a Natural Product-Based CYP17A1 Lyase Inhibitor for Hyperandrogenic Disorders” (Biomolecules, 2026):

Legend:
[1] = biological target: T1, CYP17A1 17,20-lyase (Homo sapiens, UniProt P05093); experiment: CYP17A1 17,20-lyase activity assay (DHEA from 17OH-pregnenolone, POR, CYP17A1 and cytochrome b5); assay type: biochemical
T1 sequence (P05093 1-508): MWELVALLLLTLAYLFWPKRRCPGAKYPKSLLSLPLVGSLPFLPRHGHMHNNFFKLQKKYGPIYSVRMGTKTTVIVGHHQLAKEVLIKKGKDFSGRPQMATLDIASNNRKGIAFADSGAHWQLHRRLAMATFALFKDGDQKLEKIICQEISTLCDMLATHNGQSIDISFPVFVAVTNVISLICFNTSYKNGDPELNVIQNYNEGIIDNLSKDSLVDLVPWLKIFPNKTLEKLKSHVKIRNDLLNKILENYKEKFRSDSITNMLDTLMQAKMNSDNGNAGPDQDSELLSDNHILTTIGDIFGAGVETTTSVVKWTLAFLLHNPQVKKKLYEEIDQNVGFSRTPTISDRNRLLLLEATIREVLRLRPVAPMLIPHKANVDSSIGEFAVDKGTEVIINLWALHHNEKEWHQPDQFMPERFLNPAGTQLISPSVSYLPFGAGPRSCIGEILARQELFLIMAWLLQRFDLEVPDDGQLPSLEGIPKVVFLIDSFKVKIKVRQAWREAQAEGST
Description: Assay of CYP17A1 17α-hydroxylase and 17,20-lyase activities were performed as described previously. The 17α-hydroxylase activity was measured by conversion of progesterone to 17OH-progesterone, while production of DHEA from 17OH-pregnenolone was used for monitoring the 17,20-lyase activity of CYP17A1. In vitro CYP17A1 assays were performed using a liposome system consisting of human p450 oxidoreductase (POR) and CYP17A1 at a ratio of 3:4 (POR: CYP17A1). […] The drugs were added to the final mixture and incubated for 1h before the catalytic reaction was initiated by the addition of NADPH to 1 mM final concentration. Radiolabeled [^14C]-progesterone (10,000 cpm in 1 µM) was used as a tracer in each reaction. Steroids were extracted and separated by thin-layer chromatography (TLC) on silica gel (SIL G/UV254) TLC plates (Macherey-Nagel, Oensingen, Switzerland) as previously described.
In vitro CYP17A1 17,20-lyase activity assays were performed using POR, CYP17A1 and cytochrome b5 as described previously. The final assay mixture consisted of proteins, 10 mM MgCl2, 6 mM KOAc, 0.05 mg/mL DLPC, 1 mM reduced glutathione in 50 mM HEPES-NaOH buffer (pH 7.4), and the reaction volume was 200 μL. The drugs were added to the final mixture and incubated for 1h before the catalytic reaction was initiated by the addition of NADPH to 1 mM final concentration. Radiolabeled [^3H]-17OH-pregnenolone (50,000 cpm in 1 µM) was added as a tracer and the enzyme activity was measured by using the scintillation counter in the water release assay.

[2] = biological target: T2, CYP17A1 17α-hydroxylase (Homo sapiens, UniProt P05093); experiment: CYP17A1 17α-hydroxylase activity assay (progesterone to 17OH-progesterone, reconstituted POR/CYP17A1); assay type: biochemical; details: 10 µM (SM extract 10 µg/mL)
T2 sequence (P05093 1-508): T1 sequence (P05093 1-508)
Description: Assay of CYP17A1 17α-hydroxylase and 17,20-lyase activities were performed as described previously. The 17α-hydroxylase activity was measured by conversion of progesterone to 17OH-progesterone, while production of DHEA from 17OH-pregnenolone was used for monitoring the 17,20-lyase activity of CYP17A1. In vitro CYP17A1 assays were performed using a liposome system consisting of human p450 oxidoreductase (POR) and CYP17A1 at a ratio of 3:4 (POR: CYP17A1). The final assay mixture consisted of proteins (37.5 […] CYP17A1), 10 mM MgCl2, 6 mM potassium acetate (KOAc), 0.05 mg/mL DLPC,1 mM reduced Glutathione in 50 mM HEPES-NaOH buffer (pH 7.4), and the reaction volume was 200 μL. The drugs were added to the final mixture and incubated for 1h before the catalytic reaction was initiated by the addition of NADPH to 1 mM final concentration. Radiolabeled [^14C]-progesterone (10,000 cpm in 1 µM) was used as a tracer in each reaction. Steroids were extracted and separated by thin-layer chromatography (TLC) on silica gel (SIL G/UV254) TLC plates (Macherey-Nagel, Oensingen, Switzerland) as previously described.

[3] = biological target: T3, CYP21A2 (Homo sapiens, UniProt P08686); experiment: CYP21A2 activity assay in transiently transfected HEK-293T cells; assay type: cell-based; details: transfected HEK-293T cells
T3 construct: expressed in transfected cells; host or cells: HEK293 / HEK-293T
T3 sequence (P08686 1-495): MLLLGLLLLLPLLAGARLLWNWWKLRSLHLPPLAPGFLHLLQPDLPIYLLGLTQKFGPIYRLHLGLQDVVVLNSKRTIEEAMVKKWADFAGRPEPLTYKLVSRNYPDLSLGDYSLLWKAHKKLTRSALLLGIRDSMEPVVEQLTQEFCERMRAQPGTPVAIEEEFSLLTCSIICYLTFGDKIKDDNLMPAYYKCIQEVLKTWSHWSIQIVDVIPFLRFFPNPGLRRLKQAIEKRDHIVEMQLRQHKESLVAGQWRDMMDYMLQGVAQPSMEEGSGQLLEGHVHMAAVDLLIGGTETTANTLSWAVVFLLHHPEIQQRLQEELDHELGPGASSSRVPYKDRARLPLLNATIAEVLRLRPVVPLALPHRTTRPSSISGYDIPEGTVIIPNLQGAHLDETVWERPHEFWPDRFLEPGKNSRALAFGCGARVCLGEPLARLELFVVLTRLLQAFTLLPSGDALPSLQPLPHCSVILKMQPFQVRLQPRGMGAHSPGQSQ
Description: Transient transfections were performed using the CYP21A2 WT vector as described previously. HEK293 cells were seeded in six-well plates (3 × 10^5 cells/well). After 24 h, the growth medium was replaced, and cells were transfected using Lipofectamine 2000 (Thermo Fisher Scientific, Bedford, MA, USA) with 12.5 µg of plasmid (plasmid concentration: 1068 µg/mL). Twenty-four hours after transfection, transfected cells were replated in 24-well plates (1.5 × 10^5 cells/well) to ensure homogeneity of the cell population across the wells. Six hours after transfection, 2 mL of fresh medium was replaced, and the cells were cultured for 48 h. Cell growth was examined. […] DMSO was added to the negative control, and 10 µM abiraterone was added to the positive control, and the cells were incubated for 4 h. Functional assays were initiated by adding 1 µM unlabeled progesterone (using 10,000 cpm of [^14C]-progesterone as a tracer). After incubation at 37 °C for 1 h, the culture medium and cells were harvested. Steroids were extracted from the culture medium with ethyl acetate and isooctane (1:1 volume ratio), dried, and dissolved in dichloromethane. Steroids were separated by thin-layer chromatography (TLC), placed on a phosphor screen, and visualized using a Typhoon PhosphorImager FLA-7000 (GE Healthcare Bio-Sciences AB, Uppsala, Sweden). Image intensity was measured and quantified using ImageQuant TL v8 (Cytiva, Marlborough, MA, USA). The CYP21A2 enzyme activity was expressed as relative steroid conversion. Steroids were quantified as a percentage of radioactivity incorporated into […] to the total radioactivity measured in the whole sample and compared between the WT and variants. Cells were collected with trypsin and washed with 1× PBS to quantify the amount of protein. Results were analyzed from three technical replicates. To ensure a similar amount of CYP21A2 in each reaction, a Western blot analysis was performed to normalize the enzyme activity with the relative CYP21A2 expression.

inhibition at 10 µM ([1]; 10 µM (SM extract 10 µg/mL), calculated as 100% − % residual activity, read-out: % Inhibition CYP17A1-Lyase): 69.6%
Residual 17,20-lyase activity ([1]; % of DMSO control, 10 µM (SM extract 10 µg/mL)): 30%
Lyase/CYP21A2 Selectivity Index ([1]; (% Inhibition Lyase)/(% Inhibition CYP21A2) at 10 µM (SM 10 µg/mL)): 2.34
Lyase/OH Selectivity Index ([1]; (% Inhibition Lyase)/(% Inhibition OH) at 10 µM (SM 10 µg/mL)): 0.73
inhibition at 10 µM ([2]; calculated as 100% − % residual activity, read-out: % Inhibition CYP17A1-OH): 94.7%
Residual 17α-hydroxylase activity ([2]; % of DMSO control): 5.3%
inhibition at 10 µM ([3]; 10 µM (SM extract 10 µg/mL), calculated as 100% − % residual activity, read-out: % Inhibition CYP21A2): 29.8%
Residual CYP21A2 activity ([3]; % of DMSO control, 10 µM): 70%
SMILES: C[C@]12CC[C@H](O)CC1=CC[C@@H]1[C@@H]2CC[C@]2(C)C(c3cccnc3)=CC[C@@H]12 [Abiraterone, abiraterone, reference compound]
